Columns and labels:
A. flavus ATCC 204304 = assay: Broth microdilution antifungal susceptibility, NCCLS M38-A; format: cell-based, Aspergillus flavus; conditions: minimal concentration inhibiting >95% growth; average of at least two assays (except I-l and I-x)
A. fumigatus ATCC 204305 = assay: as above; format: cell-based, Aspergillus fumigatus; conditions: minimal concentration inhibiting >95% growth; average of at least two assays (except I-l and I-x)

Row | Compound | MIC0 A. flavus ATCC 204304 (A. flavus ATCC 204304) [µg/mL] | MIC0 A. fumigatus ATCC 204305 (A. fumigatus ATCC 204305) [µg/mL]
1 | CC[C@H]1O[C@@H](/C(C)=C/[C@H](C)/C=C/[C@H]2[C@@H](C)[C@@H]2/C=C/[C@@H]2O[C@H](CC(=O)O)C[C@H](NC(=O)NCc3ccccc3)[C@H]2O)CC=C1C [I-s, (5S,6R)-5-(3-benzylureido)-6-hydroxypolyangioic acid] | 32 | 16
2 | CC[C@H]1O[C@@H](/C(C)=C/[C@H](C)/C=C/[C@H]2[C@@H](C)[C@@H]2/C=C/[C@@H]2O[C@H](CC(=O)NCCN(C)C)C[C@H](N(C)C)[C@H]2O)CC=C1C [I-qq, (5S,6R)-5-dimethylamino-6-hydroxy-N-[(2-dimethylamino)ethyl]polyangiamide] | >32 | 32
3 | CC[C@H]1O[C@@H](/C(C)=C/[C@H](C)/C=C/[C@H]2[C@@H](C)[C@@H]2/C=C/[C@@H]2O[C@H](CC(=O)O)C[C@H](NCc3ccc(OC)c(OC)c3)[C@H]2O)CC=C1C [I-hhh, (5S,6R)-5-(3,4-dimethoxybenzyl)amino-6-hydroxypolyangioic acid] | >32 | >32
4 | CC[C@H]1O[C@@H](/C(C)=C/[C@H](C)/C=C/[C@H]2[C@@H](C)[C@@H]2/C=C/[C@@H]2O[C@H](CC(=O)OC)C[C@H](N(C)C(C)=O)[C@H]2O)CC=C1C [I-k, methyl (5S,6R)-5-[N-methyl(acetamido)]-6-hydroxypolyangioate] | >32 | >32
5 | CC[C@H]1O[C@@H](/C(C)=C/[C@H](C)/C=C/[C@H]2[C@@H](C)[C@@H]2/C=C/[C@@H]2O[C@H](CCO)C[C@H](NCC(F)(F)F)[C@H]2O)CC=C1C [I-iii, (5S,6R)-5-(2,2,2-trifluroethyl)aminopolyangi-1,6-diol] | 16 | 16
6 | CC[C@H]1O[C@@H](/C(C)=C/[C@H](C)/C=C/[C@H]2[C@@H](C)[C@@H]2/C=C/[C@@H]2O[C@H](CC(=O)NCC(=O)OC)C[C@H](N(C)C)[C@H]2O)CC=C1C [I-ss, (5S,6R)-5-dimethylamino-6-hydroxy-N-(methoxycarbonylmethyl)polyangiamide] | 8 | 4
7 | CC[C@H]1O[C@@H](/C(C)=C/[C@H](C)/C=C/[C@H]2[C@@H](C)[C@@H]2/C=C/[C@@H]2O[C@H](CC(=O)O)C[C@H](N(C)C(=O)OC)[C@H]2O)CC=C1C [I-o] | 32 | 16
8 | methyl (5S,6R,16S,17S)-5-tert-butoxycarbonylamino-6-hydroxy-16,17-epxoy-16,17-dihydropolyangiate [V-b] | >32 | >32
9 | CC[C@H]1O[C@@H](/C(C)=C/[C@H](C)/C=C/[C@H]2[C@@H](C)[C@@H]2/C=C/[C@@H]2O[C@H](CC=NO)C[C@H](NC)[C@H]2O)CC=C1C [I-zz, (5S,6R)-5-methylamino-6-hydroxypolyangial oxime] | 8 | 12
10 | CC[C@H]1O[C@@H](/C(C)=C/[C@H](C)/C=C/[C@H]2[C@@H](C)[C@@H]2/C=C/[C@@H]2O[C@H](CC(=O)O)C[C@H](NC(C)=O)[C@H]2O)CC=C1C [I-j, (5S,6R)-5-acetamido-6-hydroxypolyangioic acid] | >32 | 32
11 | CC[C@H]1O[C@@H](/C(C)=C/[C@H](C)/C=C/[C@H]2[C@@H](C)[C@@H]2/C=C/[C@@H]2O[C@H](CC(=O)O)C[C@H](N)[C@H]2O)CC=C1C [Ambruticin VS-5, (5S,6R)-5-amino-6-hydroxypolyangioic acid, reference compound] | 1.09 | 1.64
12 | (5S,6R,16R,17R)-5-amino-6-hydroxy-16,17-epxoy-16,17-dihydropolyangioic acid [V-c] | 16 | 8
13 | C=CCNC(=O)O[C@H]1[C@H](/C=C/[C@H]2[C@H](C)[C@@H]2/C=C/[C@@H](C)/C=C(\C)[C@H]2CC=C(C)[C@@H](CC)O2)O[C@H](CC(=O)O)C[C@@H]1N(C)C(=O)NCC=C [I-cc, (5S,6R)-5-(3-allyl-1-methylureido)-6-(allylcarbamoyl)polyangioic acid] | >32 | >32
14 | methyl (5S,6R,16R,17R)-5-tert-butoxycarbonylamino-6-hydroxy-16,17-epxoy-16,17-dihydropolyangiate [V-a] | >32 | >32
15 | CC[C@H]1O[C@@H](/C(C)=C/[C@H](C)/C=C/[C@H]2[C@@H](C)[C@@H]2/C=C/[C@@H]2O[C@H](CC(=O)O)C[C@H](N(C)Cc3nccs3)[C@H]2O)CC=C1C [I-x, (5S,6R)-5-(N-(2-thiazolyl)methyl-methylamino)-6-hydroxypolyangioic acid] | 4 | 2
16 | 20,21-dihydro ambruticin VS4 [IV-e] | 1 | 2.5
17 | CC[C@H]1O[C@@H](/C(C)=C/[C@H](C)/C=C/[C@H]2[C@@H](C)[C@@H]2/C=C/[C@@H]2O[C@H](CC(=O)OC)C[C@H](N(C)C(=O)OCC(C)C)[C@H]2O)CC=C1C [I-gg] | >32 | >32
18 | CC[C@H]1O[C@@H](/C(C)=C/[C@H](C)/C=C/[C@H]2[C@@H](C)[C@@H]2/C=C/[C@@H]2O[C@H](CC(=O)O)C[C@H](N(CC3CC3)CC3CC3)[C@H]2O)CC=C1C [I-e, (5S,6R)-5-[di(cyclopropylmethyl)amino]-6-hydroxypolyangioic acid] | 3.33 | 4.0
19 | CC[C@H]1O[C@@H](/C(C)=C/[C@H](C)/C=C/[C@H]2[C@@H](C)[C@@H]2/C=C/[C@@H]2O[C@H](CCO)C[C@H](NCC(F)F)[C@H]2O)CC=C1C [I-jjj, (5S,6R)-5-(2,2-difluroethyl)aminopolyangi-1,6-diol] | 8 | 8
20 | CC[C@H]1O[C@@H](/C(C)=C/C/C=C/[C@H]2[C@@H](C)[C@@H]2/C=C/[C@@H]2O[C@H](CCO)C[C@H](N(C)C)[C@H]2O)CC=C1C [II-b, (5S,6R)-5-dimethylamino-15-desmethylpolyangi-1,6-diol] | 8 | 8
21 | CC[C@H]1O[C@@H](/C(C)=C/C/C=C/[C@H]2[C@@H](C)[C@@H]2/C=C/[C@@H]2O[C@H](CC(=O)O)C[C@H](N(C)C)[C@H]2O)CC=C1C [II-a, (5S,6R)-5-dimethylamino-6-hydroxy-15-desmethylpolyangioic acid] | 0.92 | 0.6
22 | CC[C@H]1O[C@@H](/C(C)=C/[C@H](C)/C=C/[C@H]2[C@@H](C)[C@@H]2/C=C/[C@@H]2O[C@H](CC(=O)O)C[C@H](N(C)C(=O)NCc3ccccc3)[C@H]2OC(=O)NCc2ccccc2)CC=C1C [I-dd, (5S,6R)-5-(3-benzyl-1-methylureido)-6-(benzylcarbamoyl)polyangioic acid] | >32 | >32
23 | CC[C@H]1O[C@@H](/C(C)=C/[C@H](C)/C=C/[C@H]2[C@@H](C)[C@@H]2/C=C/[C@@H]2O[C@H](CC(=O)O)C[C@H](NC(=O)C(F)(F)F)[C@H]2O)CC=C1C [I-fff, (5S,6R)-5-trifluroacetamido-6-hydroxypolyangioic acid] | 2 | 3
24 | CC[C@H]1O[C@@H](/C(C)=C/[C@H](C)/C=C/[C@H]2[C@@H](C)[C@@H]2/C=C/[C@@H]2O[C@H](CC(=O)O)C[C@H](N(Cc3c[nH]cn3)Cc3c[nH]cn3)[C@H]2O)CC=C1C [I-g, (5S,6R)-5-{di [(4-imidazolyl)methyl]amino}-6-hydroxypolyangioic acid] | 24.0 | 22.67
25 | CC[C@H]1O[C@@H](/C(C)=C/[C@H](C)/C=C/[C@H]2[C@@H](C)[C@@H]2/C=C/[C@@H]2O[C@H](CC(=O)O)C[C@H](N(C)C(=O)NCc3ccccc3)[C@H]2O)CC=C1C [I-p, (5S,6R)-5-(3-benzyl-1-methylureido)-6-hydroxypolyangioic acid] | 32 | 32
26 | CC[C@H]1O[C@@H](/C(C)=C/[C@H](C)/C=C/[C@H]2[C@@H](C)[C@@H]2/C=C/[C@@H]2O[C@H](CC(=O)O)C[C@H](N(C)C)[C@H]2O)CC=C1C [Ambruticin VS-3, (5S,6R)-5-(dimethylamino)-6-hydroxypolyangioic acid, reference compound] | 0.64 | 0.44
27 | CC[C@H]1O[C@@H](/C(C)=C/[C@H](C)/C=C/[C@H]2[C@@H](C)[C@@H]2/C=C/[C@@H]2O[C@H](CC(=O)N(C)OC)C[C@H](N(C)C)[C@H]2O)CC=C1C [I-tt, (5S,6R)-5-dimethylamino-6-hydroxy-N-methoxy-N-methylpolyangiamide] | 4 | 8
28 | CC[C@H]1O[C@@H](/C(C)=C/[C@H](C)/C=C/[C@H]2[C@@H](C)[C@@H]2/C=C/[C@@H]2O[C@H](CC(=O)O)C[C@H](N(C)Cc3ccc4ccccc4c3)[C@H]2O)CC=C1C [I-f, (5S,6R)-5-(N-(2-naphthyl)methyl-methylamino)-6-hydroxypolyangioic acid] | 4.67 | 8.0
29 | CCC(=O)N(C)[C@H]1C[C@@H](CC(=O)O)O[C@@H](/C=C/[C@H]2[C@H](C)[C@@H]2/C=C/[C@@H](C)/C=C(\C)[C@H]2CC=C(C)[C@@H](CC)O2)[C@@H]1O [I-m, (5S,6R)-5-[N-methyl(propionamido)]-6-hydroxypolyangioic acid] | >32 | >32
30 | (5S,6R,16S,17S)-5-amino-6-hydroxy-16,17-epxoy-16,17-dihydropolyangioic acid [V-d] | >32 | >32

— US20070015823A1, “Ambruticin VS compounds” (priority 2004, published 2007)
